Patent US20250381110A1, “SKIN CARE COMPOSITION AND METHOD OF USING THE SAME” (THE PROCTER & GAMBLE COMPANY, priority 2024, published 2025)
Counter-ions that a name gives are not always drawn.

Test system: p62-dependent mitophagy
Test: Luciferase-p62 assay (Fluc-p62 clearance) in mouse embryonic fibroblasts
Format: cell-based
Settings: for Mean Luminescence: Luciferase-p62 assay, mouse embryonic fibroblasts (MEFs), compounds at 10 μM; for % Activity over baseline: percentage of Luciferase-p62 clearance relative to baseline (mean luminescence in the absence of doxycycline induction); for % Activity over baseline / % Activity relative to Rapamycin: MEFs, 10 μM; for % Activity relative to Rapamycin: percentage of activity relative to rapamycin tested in the same experiment at the same concentration
Description: To identify p62-dependent materials which increase mitophagy, a Luciferase-p62 Assay was established. This method provides an approach to measure the ability of a material to modulate p62-dependent mitophagy by using an inducible firefly luciferase-p62 (Fluc-p62) reporter cell system. In this assay, p62 levels are driven by doxycycline treatment. After levels increased, expression of Fluc-p62 is turned off by removal of doxycycline, materials are then added and assessed for how they affect clearance of Fluc-p62 protein, which is proportionate to cellular mitophagy rates (Kelly et al.). The negative control is doxycycline induced Luc-p62 in the absence of compound or bioactive material treatment and in the presence of vehicle (DMSO).
Test materials including bioactive materials were screened in mouse embryonic fibroblasts (MEFs, Harada et al.) expressing the TET-inducible p62-fluc construct as previously described (Brown et al.). […] Gibson assembly was used to insert firefly luciferase (Fluc) and p62 into the pCW57.1 backbone. Fluc, p62, and pCW57.1 were polymerase chain reaction (PCR) amplified using pfu polymerase (Life technologies) and Gibson assembly primers with 20 base pair (bp) overhangs. PCR products were separated by agarose gel electrophoreses, and fragments excised and purified before use in DNA assembly reaction with NEBuilder HiFi DNA Assembly kit (New England Biolabs). After the assembly, the reaction mix was transformed into NEB3040 Stable Competent Escherichia coli (New England Biolabs). After 24 hours growth at 31 degrees Celsius the plasmid was extracted using QIAprep Spin Miniprep kit (Qiagen). The plasmid was sequenced to confirm correct insertion of Fluc-p62. To generate MEFs stably expressing doxycycline inducible Fluc-p62, HEK293FT cells were transfected with Fluc-p62-pCW57.1 and the ViraPower Packaging Mix (Invitrogen) to produce lentivirus. MEFs were transduced with the obtained lentiviral stock following followed by selection with 1 microgram per milliliter puromycin.Fluc-p62expressing MEFs were maintained in DMEM supplemented with 10 percent fetal bovine serum (FBS), 100 units per milliliter penicillin/streptomycin, and 2 millimolar L-glutamine in a humidified atmosphere containing 5 percent carbon dioxide at 37 degrees Celsius. Cells were plated into white 96 well plates (2,000 cells per well with 100 microliters media) and allowed to settle for 24 hours. […] Subsequently, cells were treated with test materials for 48 hours in normal growth medium and analysed using ONE-Glo™+Tox Luciferase Reporter and Cell Viability Assay (Promega) by following the manufacturer's protocol.
Test compositions and control compositions were prepared as described above in the Luciferase-p62 assay (Method 3) and tested accordingly. The compounds used in this example, as examples of bioactive materials, were from the APExBIO DiscoveryProbe™ Natural Product Library Plus (Houston, TX) and evaluated at equivalent concentrations (10 μM).
Data are additionally calculated as percentage of activity relative to rapamycin, a benchmark control compound tested in the same experiment.

Compound | Mean Luminescence | % Activity over baseline | % Activity relative to Rapamycin
CO[C@H]1C(=O)[C@]2(C)[C@@H](OC)C[C@H]3OC[C@@]3(OC(C)=O)[C@H]2[C@H](OC(=O)c2ccccc2)[C@]2(O)C[C@H](OC(=O)[C@H](O)[C@@H](NC(=O)OC(C)(C)C)c3ccccc3)C(C)=C1C2(C)C [Cabazitaxel] | 929.36 | 42.56% | 76.69%
COc1c(C)c2c(c(O)c1C/C=C(\C)CCC(=O)OCCN1CCOCC1)C(=O)OC2 [Mycophenolate Mofetil] | 594.21 | 63.28% | 114.01%
COc1cc(CC(=O)O)ccc1O [Homovanillic acid] | 908.95 | 43.83% | 78.96%
COc1ccc(C(=O)O)cc1OC [Veratric acid] | 937.88 | 42.04% | 75.74%
O=c1cc[nH]c(=O)[nH]1 [Uracil] | 927.30 | 42.69% | 76.92%
CCCCc1oc2ccc(NS(C)(=O)=O)cc2c1C(=O)c1ccc(OCCCN(CCCC)CCCC)cc1 [Dronedarone] | 550.43 | 65.98% | 118.89%
O=c1ccc2ccc3occc3c2o1 [Angelicin] | 910.28 | 43.74% | 78.82%
C=CC[C@@H]1/C=C(\C)C[C@H](C)C[C@H](OC)[C@H]2O[C@@](O)(C(=O)C(=O)N3CCCC[C@H]3C(=O)O[C@H](/C(C)=C/[C@@H]3CC[C@@H](O)[C@H](OC)C3)[C@H](C)[C@@H](O)CC1=O)[C@H](C)C[C@@H]2OC [Tacrolimus (FK506)] | 512.17 | 68.35% | 123.15%
CC(=O)CCC(=O)O [Levulinic acid] | 771.58 | 52.32% | 94.26%
C[C@H](CCC(=O)O)[C@H]1CC[C@H]2[C@@H]3[C@H](O)C[C@@H]4C[C@H](O)CC[C@]4(C)[C@H]3CC[C@]12C [Chenodeoxycholic Acid] | 999.71 | 38.22% | 68.86%
Nc1ccc(O)cc1 [Compound 4-Aminophenol, 4-Aminophenol] | 482.45 | 70.18% | 126.45%
Cc1cnc(C(=O)O)c[n+]1[O-] [Acipimox] | 922.85 | 42.97% | 77.42%
CS(=O)(=O)CCNCc1ccc(-c2ccc3ncnc(Nc4ccc(OCc5cccc(F)c5)c(Cl)c4)c3c2)o1 [Lapatinib Ditosylate] | 578.14 | 64.27% | 115.80%
OC[C@@H](O)[C@@H](O)CO [Erythritol] | 696.09 | 56.98% | 102.67%
CC[C@H]1OC(=O)[C@H](C)[C@@H](O[C@H]2C[C@@](C)(OC)[C@@H](O)[C@H](C)O2)[C@H](C)[C@@H](O[C@@H]2O[C@H](C)C[C@H](N(C)C)[C@H]2O)[C@](C)(OC)C[C@@H](C)C(=O)[C@H](C)[C@@H](O)[C@]1(C)O [Clarithromycin] | 941.49 | 41.82% | 75.34%
CC(=O)C(C)=NO [2,3-Butanedione-2-monoxime] | 762.32 | 52.89% | 95.29%
O=C1C=CC(=O)C=C1 [1,4-Benzoquinone] | 422.02 | 73.92% | 133.18%
CC1(C)C2CCC1(C)C(O)C2 (stereo not drawn) [(—)-Borneol] | 967.20 | 40.23% | 72.48%
CN1CCN2c3ccccc3Cc3ccccc3C2C1 (stereo not drawn) [Mianserin HCl] | 960.23 | 40.66% | 73.25%
CC[C@H]1CN2CC[C@]3(C(=O)Nc4ccccc43)[C@@H]2C[C@@H]1/C(=C\OC)C(=O)OC [Rhynchophylline] | 953.80 | 41.05% | 73.97%
C[C@H]1O[C@@H](O[C@H]2CC[C@@]3(C)[C@@H](CC[C@]4(C)[C@@H]3C=C[C@]35OC[C@@]6(CCC(C)(C)C[C@H]63)[C@@H](O)C[C@]54C)[C@]2(C)CO)[C@H](O)[C@@H](O[C@@H]2O[C@H](CO)[C@@H](O)[C@H](O)[C@H]2O)[C@H]1O [Saikosaponin A] | 561.50 | 65.30% | 117.65%
Nc1ncnc2c1ncn2[C@@H]1O[C@H](COP(=O)(O)O)[C@@H](O)[C@H]1O [Adenosine 5-monophosphate] | 890.00 | 45.00% | 81.07%
Clc1ccc(COC(Cn2ccnc2)c2ccc(Cl)cc2Cl)cc1 (stereo not drawn) [Econazole nitrate] | 359.76 | 77.77% | 140.12%
C[C@@H]1CCCCCCCCCCCCC(=O)C1 [Muscone] | 869.43 | 46.27% | 83.36%
CC1=C(/C=C/C(C)=C/C=C/C(C)=C/C(=O)O)C(C)(C)CCC1 [Tretinoin (Aberela)] | 773.39 | 52.20% | 94.06%
O=C(O)CC(=O)O [Malonic acid] | 865.42 | 46.52% | 83.81%
C[C@@H]1O[C@@H](O[C@H]2C[C@@H](O)[C@]3(CO)[C@H]4[C@H](O)C[C@]5(C)[C@@H](C6=CC(=O)OC6)CC[C@]5(O)[C@@H]4CC[C@]3(O)C2)[C@H](O)[C@H](O)[C@H]1O [Ouabain] | 788.34 | 51.28% | 92.39%
O=c1[nH]cc(F)c(=O)[nH]1 [Fluorouracil (Adrucil)] | 848.60 | 47.56% | 85.68%
CC(C)=CCC[C@](C)(O[C@@H]1O[C@H](CO)[C@@H](O)[C@H](O)[C@H]1O)[C@H]1CC[C@]2(C)[C@@H]1[C@H](O)C[C@@H]1[C@@]3(C)CC[C@H](O)C(C)(C)[C@@H]3[C@@H](O[C@@H]3O[C@H](CO)[C@@H](O)[C@H](O)[C@H]3O)C[C@]12C [Ginsenoside Rg1] | 947.81 | 41.42% | 74.64%
